Results: patent publication US20210130420A1, “RECOMBINANT BINDING PROTEINS TARGETING HER2 AND SERUM ALBUMIN, AND THEIR USES” (Molecular Partners AG, priority 2016, published 2021)
Like-named read-outs stand apart in the source and are kept apart here.

B1: Protein #12-His: SEQ ID NO: 12 with a His-tag; designed ankyrin repeat domain with binding specificity for serum albumin (WO2012/069654) (protein)
chain: GSDLGKKLLEAARAGQDDEVRILLKAGADVNAKDYFSHTPLHLAARNGHLKIVEVLLKAGADVNAKDFAGKTPLHLAANDGHLEIVEVLLKAGADVNAQDIFGKTPADIAADAGHEDIAEVLQKAA
modifications: His-tag; Designed ankyrin repeat domain
B2: Protein #15-His: SEQ ID NO: 15 with a His-tag; designed ankyrin repeat domain with binding specificity for serum albumin (WO2012/069654) (protein)
chain: GSDLGKKLLEAARAGQDDEVRILMANGADVNAKDYFSHTPLHLAARNGHLKIVEVLLKAGADVNAKDFAGKTPLHLAANDGHLEIVEVLLKHGADVNAQDIFGKTPADIAADAGHEDIAEVLQKAA
modifications: His-tag; Designed ankyrin repeat domain

How the values were obtained:
BT474 cells = assay: BT474 cell proliferation, BrdU-labeling; format: cell-based, human; conditions: Homo sapiens, BT-474, read-out: cell proliferation inhibition constant IC50, BT474
Protocol: Protein #21-His and Protein #23-His, were expressed and purified as described in Example 1. Effects of the recombinant binding proteins on BT474 cell proliferation were determined by measuring DNA synthesis using BrdU-labeling (BrdU, Cell Proliferation ELISA, Roche). Briefly, 10000 BT474 cells were seeded per well in a 96 well plate in 100 ul complete medium and incubated for 24 hours. Recombinant binding proteins or controls were added for an additional 72 hours. BrdU for cell labeling was added for the last 24 hours. Labeled (proliferating) cells were detected according to the manufactures protocol. The data were analyzed using the GraphPad prism software, plotting log [c] on the x-axis against OD450-602 nm on the y-axis. Data were fitted using a non-linear regression fit (log(antagonist) vs. response—Variable slope (four parameters)) deriving IC50 values.
Protein #21 and Protein #21-His were expressed and purified as described in Example 1. Standard BrdU cell proliferation assays were performed, well-known to the person skilled in the art. Briefly, effects on cell proliferation of Protein #21-His, other compounds, or Protein #21-His in combination with other compounds, were determined by measuring DNA synthesis using BrdU-labeling (BrdU, Cell Proliferation ELISA, Roche). Briefly, 10000 cells were seeded per well in a 96 well plate in 100 μl complete medium and incubated for 24 hours. Protein #21-His and/or compounds were added for an additional 72 hours. BrdU for cell labeling was added for the last 24 hours. Labeled (proliferating) cells were detected according to the manufactures protocol. The data were analyzed using the Graph Pad prism software (log [c] vs. OD450-602 nm plot). Data were fitted using a non-linear regression fit (log(antagonist) vs. response—variable slope (four parameters)).

[1] = Storage stability in PBS analysed by SDS-PAGE; format: physicochemical; conditions: for degradation upon prolonged incubation: in PBS at 10 mg/ml at 40° C.
Protocol: “Improved storage stability” in the context of the present invention means the reduction of the amounts of a degradation band, preferably the reduction of the amount of degradation products, as detected by a Coomassie-stained SDS-PAGE occurring after storage at 40° C. for 1 month at 10 mg/ml in PBS, by at least 5%, 10%, 15%, 20%, 25%, 30%, 35%, 40%, 45%, 50%, or 50%. Methods to assess storage stability by SDS-PAGE are well known to the person skilled in the art. Examples of designed ankyrin repeat domains and recombinant binding proteins with improved storage stability properties are given in Examples 2 and 3.
Protein #13-His, Protein #14-His and Protein #15-His were prepared as described in Example 1, and samples were concentrated to 10 mg/ml in PBS. Protein #14-His and Protein #15-His where then stored for 1 month at −80° C. or at 40° C. in glass vials, followed by analysis on SDS 15% PAGE. […] These findings illustrate that Protein #14-His has improved storage stability compared to Proteins #13-His and Protein #15-His.
A storage stability improvement is also observed, when testing the storage stability of Protein #21 and Protein #22 (recombinant binding proteins consisting of the amino acid sequences corresponding to SEQ ID NOs: 21 and 22, respectively). Protein #21 and Protein #22 are prepared as described in Example 1, samples are concentrated to 10 mg/ml in PBS and stored for 1 month at −80° C. in or at 40° C. in glass vials, followed by analysis on standard size-exclusion chromatography.

[2] = compound titrated alone or with Protein #21 at 2 nM
[3] = Protein #21 was titrated, Trametinib (10^−5 M), Cobimetinib (10^−5 M) or Salirasib (3*10^−5 M)

Molecule | IC50 (BT474 cells; [2]) [nM] | IC50 (BT474 cells; [3]) [nM] | other results
Cc1nc(NC(=O)N2CCC[C@H]2C(N)=O)sc1-c1ccnc(C(C)(C)C(F)(F)F)c1 [Alpelisib] | 2540 | – | –
Cc1c(CN2CCN(C(=O)[C@H](C)O)CC2)sc2c(N3CCOCC3)nc(-c3cnc(N)nc3)nc12 [Apitolisib] | 204 | – | –
O=C(c1ccc(F)c(F)c1Nc1ccc(I)cc1F)N1CC(O)([C@@H]2CCCCN2)C1 [Cobimetinib] | – | 1.02 | –
CC(=O)c1c(C)c2cnc(Nc3ccc(N4CCNCC4)cn3)nc2n(C2CCCC2)c1=O [Palbociclib] | 2600 | – | –
CC(C)=CCC/C(C)=C/CC/C(C)=C/CSc1ccccc1C(=O)O [Salirasib] | – | 0.94 | –
Cc1nc(-c2cn3c(n2)-c2ccc(-c4cnn(C(C)(C)C(N)=O)c4)cc2OCC3)n(C(C)C)n1 [Taselisib] | 105 | – | –
CC(=O)Nc1cccc(-n2c(=O)n(C3CC3)c(=O)c3c(Nc4ccc(I)cc4F)n(C)c(=O)c(C)c32)c1 [Trametinib] | – | 1.04 | –
B1 | – | – | degradation upon prolonged incubation [1]: degrade
B2 | – | – | stability upon storage at −80° C. ([1]; 10 mg/ml in PBS, 1 month at −80° C., SDS 15% PAGE): equivalent stability; degradation upon prolonged incubation [1]: degrade
